Values quoted from earlier work in patent publication US20200276090A1, “TOPICAL PRODUCTS WITH A BIPHASIC SYSTEM” (CMED AESTHETICS s.r.l., priority 2017, published 2020).
Read-outs that look alike come from different tables or passages of the source.

Conditions: after 90 days

Q: For `O=C(O)C(Cl)(Cl)Cl` [TCA, trichloroacetic acid], which “Degradation of TCA” value (TCA in aqueous solution alone) is on record?
A: 12.6%

Q: What about the “Degradation of TCA” value (in the presence of a high percentage of stabilizing agents, on average) of the same compound?
A: 2-3%

Q: And the “Degradation of TCA” value (in the presence of a low percentage of stabilizing agents, on average)?
A: 4-5%
